Test results taken from patent US20210308057A1, “PEDIATRIC FORMULATION OF TYROSINE KINASE INHIBITORS” (IGIA Pharmaceuticals, Inc., priority 2020, published 2021).

What was measured:
[1] = Stock solution stability (bioanalytical stock solutions); type: physicochemical; settings: polypropylene container
[2] = Nonclinical PK/PD study of low-dose dasatinib in NS and NSML mice for hypertrophic cardiomyopathy; settings: mouse, in vivo, doses 0.05 mg/kg to 0.5 mg/kg, based on exposure-response relationship, read-out: suggested potential target AUC for cardiac rescue
Protocol: A nonclinical study in mice was conducted to determine the PK and PD properties of a low-dose treatment of dasatinib in NS and NSML mice for the treatment of Hypertrophic cardiomyopathy (HCM). The goal was to establish in the same mouse model concurrent PK data and to correlate that with the endpoints of HCM using qPCR and immunoblotting. PK properties obtained from these mice were determined by Kana Mizuno and Alexander A. Vinks at Cincinnati Children's Hospital Medical Center. Dasatinib PK profiles and exposures (expressed as area under the concentration time curve; AUC) at doses ranging from 0.05 mg/kg to 0.5 mg/kg were estimated in NS and NSML mice. Based on the exposure-response relationship, potential target exposures to protect cardiac function were identified.

SMILES	Stock Stability ([1]; storage temperature 22° C.) [h]	Stock Stability ([1]; storage temperature −20° C.) [h]	AUC [2] [ng·h/mL]
[2H]C1([2H])N(CCO)C([2H])([2H])C([2H])([2H])N(c2cc(Nc3ncc(C(=O)Nc4c(C)cccc4Cl)s3)nc(C)n2)C1([2H])[2H] [Dasatinib-D8]	25	1010	
Cc1nc(Nc2ncc(C(=O)Nc3c(C)cccc3Cl)s2)cc(N2CCN(CCO)CC2)n1 [Dasatinib]	25	1010	12 to 24
